From ChEMBL document CHEMBL1124679, “A novel lead for specific anti-HIV-1 agents: 1-[(2-hydroxyethoxy)methyl]-6-(phenylthio)thymine” (J Med Chem, 1989)

Legend:
[1] = molecular target: T1, Human immunodeficiency virus type 1 reverse transcriptase (Human immunodeficiency virus 1, UniProt Q72547); assay: Inhibitory effect on HIV-1 reverse transcriptase activity using poly(rA)-oligo(dT) template primer
MT4 [2] = assay: Concentration required to achieve 50% protection of MT-4 cells against cytopathic effect of HIV-1; assay type: functional, cell-based; details: Homo sapiens
MT4 [3] = assay: Cytotoxic concentration of compound required to reduce the viability of mock-infected MT-4 cells by 50%; assay type: functional; details: Homo sapiens
[4] = Selectivity index is the ratio of CC50/EC50; assay type: functional
[5] = molecular target: T1, Human immunodeficiency virus type 1 reverse transcriptase; assay: Inhibitory effect on HIV-1 reverse transcriptase activity using poly(rC)-oligo(dG) template primer

Row | IC50 [1] [µM] | Compound | EC50 (MT4 [2]) [µM] | CC50 (MT4 [3]) [µM] | SI [4] | IC50 [5] [µM]
1 | 0.034 | Cc1cn(C2CC(N=[N+]=[N-])C(COP(=O)(O)P(=O)(O)P(=O)(O)O)O2)c(=O)[nH]c1=O (stereo not drawn) |  |  |  | 
2 |  | O=c1[nH]c(=O)n(COCCO)c(Sc2ccccc2)c1Br | > 20 | 44 | < 2.2 | 
3 |  | O=c1[nH]c(=O)n(COCCO)c(I)c1Cl | > 6 | 13 | < 2.2 | 
4 |  | Cc1c(I)n(COCCO)c(=O)[nH]c1=O | > 80 | 400 | < 5 | 
5 |  | O=c1[nH]c(=O)n(COCCO)c(Sc2ccccc2)c1F | > 100 | 288 | < 2.9 | 
6 |  | Nc1ncnc2c1ncn2[C@H]1CC[C@@H](CO)O1 | 6.3 | 890 | 141 | 
7 | 280 | Cc1c(Sc2ccccc2)n(COCCOP(=O)(O)P(=O)(O)P(=O)(O)O)c(=O)[nH]c1=O |  |  |  | 500
8 |  | O=c1[nH]c(=O)n(COCCO)c(I)c1F | > 15 | 32 | < 2.1 | 
9 |  | O=c1[nH]c(=O)n(COCCO)c(I)c1Br | > 5 | 11.5 | < 2.3 | 
10 |  | Cc1cn([C@H]2C[C@H](N=[N+]=[N-])[C@@H](CO)O2)c(=O)[nH]c1=O [ZIDOVUDINE] | 0.016 | 20 | 1250 | 
11 |  | O=c1cc(Sc2ccccc2)n(COCCO)c(=O)[nH]1 | > 500 | 1850 | < 3.7 | 
12 |  | Nc1ccn([C@H]2CC[C@@H](CO)O2)c(=O)n1 [ZALCITABINE] | 0.3 | 40 | 133 | 
13 |  | O=c1cc(I)n(COCCO)c(=O)[nH]1 | > 30 | 75 | < 2.5 | 
14 |  | O=c1[nH]c(=O)n(COCCO)c(Sc2ccccc2)c1Cl | > 30 | 100 | < 3.4 | 

Row | Compound | IC50 [1] [µM] | EC50 (MT4 [2]) [µM] | CC50 (MT4 [3]) [µM] | SI [4] | IC50 [5] [µM]
15 | Cc1c(Sc2ccccc2)n(COCCO)c(=O)[nH]c1=O [HEPT] | > 500 | 7 | 740 |  | 150
